Experimental data reported in US8802597B2, “Herbicidal pyrimidines” (E I du Pont de Nemours and Company, priority 2003, dated 2014).
Where two headings read alike, the source gives them in different places.

Experiments:
Format in all cases: in vivo
[1] = system: chickweed (Stellaria media); assay: Test C postemergence; conditions: Stellaria media, post-emergence; for pest or weed control at 62 g/ha: 62 g ai/ha, scale 0 to 100 (0 no effect, 100 complete control), read-out: Chickweed plant response rating; for pest or weed control at 125 g/ha: 125 g ai/ha; for pest or weed control at 125 g/ha / pest or weed control at 250 g/ha / pest or weed control at 500 g/ha: scale 0 to 100, read-out: Plant response rating, Chickweed; for pest or weed control at 250 g/ha: 250 g ai/ha; for pest or weed control at 500 g/ha: 500 g ai/ha
Description: (§1) Seeds or nutlets of plant species selected from bermudagrass (Cynodon dactylon), Surinam grass (Brachiaria decumbens), cocklebur (Xanthium strumarium), corn (Zea mays), crabgrass (Digitaria sanguinalis), woolly cupgrass (Eriochloa villosa), giant foxtail (Setaria faberii), goosegrass (Eleusine indica), johnsongrass (Sorghum halepense), kochia (Kochia scoparia), lambsquarters (Chenopodium album), morningglory (Ipomoea coccinea), eastern black nightshade (Solanum ptycanthum), yellow nutsedge (Cyperus esculentus), pigweed (Amaranthus retroflexus), common ragweed (Ambrosia elatior), soybean (Glycine max), common (oilseed) sunflower (Helianthus annuus), and velvetleaf (Abutilon theophrasti) were planted and treated preemergence with test chemicals formulated in a non-phytotoxic solvent mixture which included a surfactant.
(§2) At the same time, plants selected from these crop and weed species and also winter barley (Hordeum vulgare), blackgrass (Alopecurus myosuroides), canarygrass (Phalaris minor), chickweed (Stellaria media), downy brome (Bromus tectorum), green foxtail (Setaria viridis), Italian ryegrass (Lolium multiflorum), wheat (Triticum aestivum), wild oat (Avena fatua) and windgrass (Apera spica-venti) were treated with postemergence applications of some of the test chemicals formulated in the same manner. Plants ranged in height from 2 to 18 cm (1- to 4-leaf stage) for postemergence treatments. Plant species in the flooded paddy test consisted of rice (Oryza sativa), umbrella sedge (Cyperus difformis), duck salad (Heteranthera limosa) and barnyardgrass (Echinochloa crus-galli) grown to the 2-leaf stage for testing. Treated plants and controls were maintained in a greenhouse for 12 to 14 days, after which time all species were compared to controls and visually evaluated. Plant response ratings, summarized in Table C, are based on a scale of 0 to 100 where 0 is no effect and 100 is complete control. A dash (-) response means no test result.

[2] = system: johnsongrass (Sorghum halepense); assay: Test C pre/postemergence; conditions: Sorghum halepense; for pest or weed control at 62 g/ha: 62 g ai/ha; for pest or weed control at 125 g/ha: 125 g ai/ha; for pest or weed control at 250 g/ha: 250 g ai/ha; for pest or weed control at 500 g/ha: 500 g ai/ha
Description: as §1, §2

[3] = system: bermudagrass (Cynodon dactylon); assay: Test C pre/postemergence; conditions: Cynodon dactylon; for pest or weed control at 62 g/ha: 62 g ai/ha; for pest or weed control at 125 g/ha: 125 g ai/ha; for pest or weed control at 125 g/ha / pest or weed control at 250 g/ha / pest or weed control at 500 g/ha: scale 0 to 100; for pest or weed control at 250 g/ha: 250 g ai/ha; for pest or weed control at 500 g/ha: 500 g ai/ha
Description: as §1, §2

soybean (Glycine max) = assay: Test C pre/postemergence; conditions: Glycine max; for plant injury at 62 g/ha: 62 g ai/ha; for plant injury at 125 g/ha: 125 g ai/ha; for plant injury at 250 g/ha: 250 g ai/ha; for plant injury at 500 g/ha: 500 g ai/ha
Description: as §1, §2

[4] = system: lambsquarters (Chenopodium album); assay: Test C pre/postemergence; conditions: Chenopodium album; for pest or weed control at 62 g/ha: 62 g ai/ha; for pest or weed control at 125 g/ha: 125 g ai/ha; for pest or weed control at 250 g/ha: 250 g ai/ha; for pest or weed control at 500 g/ha: 500 g ai/ha
Description: as §1, §2

[5] = post-emergence, Postemergence, scale 0 to 100 (0 no effect, 100 complete control), read-out: Johnsongrass plant response rating
[6] = post-emergence, Postemergence, scale 0 to 100, read-out: Plant response rating, Johnsongrass
[7] = pre-emergence, Preemergence, scale 0 to 100, 0 no effect, 100 complete control, read-out: Plant response rating, Johnsongrass
[8] = pre-emergence, Preemergence, scale 0 to 100, read-out: Plant response rating, Johnsongrass
[9] = post-emergence, Postemergence, scale 0 to 100 (0 no effect, 100 complete control), read-out: Bermudagrass plant response rating
[10] = post-emergence, Postemergence, read-out: Plant response rating, Bermudagrass
[11] = pre-emergence, Preemergence, scale 0 to 100, 0 no effect, 100 complete control, read-out: Plant response rating, Bermudagrass
[12] = pre-emergence, Preemergence, read-out: Plant response rating, Bermudagrass
[13] = post-emergence, Postemergence, scale 0 to 100 (0 no effect, 100 complete control), read-out: Soybean plant response rating
[14] = post-emergence, Postemergence, scale 0 to 100, read-out: Plant response rating, Soybean
[15] = pre-emergence, Preemergence, scale 0 to 100, 0 no effect, 100 complete control, read-out: Plant response rating, Soybean
[16] = pre-emergence, Preemergence, scale 0 to 100, read-out: Plant response rating, Soybean
[17] = post-emergence, Postemergence, scale 0 to 100 (0 no effect, 100 complete control), read-out: Lambsquarters plant response rating
[18] = post-emergence, Postemergence, scale 0 to 100, read-out: Plant response rating, Lambsquarters
[19] = pre-emergence, Preemergence, scale 0 to 100, 0 no effect, 100 complete control, read-out: Plant response rating, Lambsquarters
[20] = pre-emergence, Preemergence, scale 0 to 100, read-out: Plant response rating, Lambsquarters

Q: Which results are given for CNc1nc(C2CC2)nc(C(=O)OC)c1Br [Compound 5]?
A: pest or weed control at 62 g/ha [1]: 0%; pest or weed control at 125 g/ha [1]: 10%; pest or weed control at 250 g/ha [1]: 20%; pest or weed control at 62 g/ha [2, 5]: 0%; pest or weed control at 125 g/ha [2, 5]: 40%; pest or weed control at 250 g/ha [2, 6]: 45%; pest or weed control at 500 g/ha [2, 6]: 45%; pest or weed control at 62 g/ha [2, 7]: 5%; pest or weed control at 125 g/ha [2, 8]: 20%; pest or weed control at 250 g/ha [2, 8]: 60%; pest or weed control at 500 g/ha [2, 8]: 70%; pest or weed control at 62 g/ha [3, 9]: 5%; pest or weed control at 125 g/ha [3, 10]: 50%; pest or weed control at 250 g/ha [3, 10]: 70%; pest or weed control at 500 g/ha [3, 10]: 80%; pest or weed control at 62 g/ha [3, 11]: 0%; pest or weed control at 125 g/ha [3, 12]: 0%; pest or weed control at 250 g/ha [3, 12]: 30%; pest or weed control at 500 g/ha [3, 12]: 70%; plant injury at 62 g/ha (soybean (Glycine max); [13]): 95%; plant injury at 125 g/ha (soybean (Glycine max); [13]): 100%; plant injury at 250 g/ha (soybean (Glycine max); [14]): 100%; plant injury at 500 g/ha (soybean (Glycine max); [14]): 100%; plant injury at 62 g/ha (soybean (Glycine max); [15]): 85%; plant injury at 125 g/ha (soybean (Glycine max); [16]): 90%; plant injury at 250 g/ha (soybean (Glycine max); [16]): 98%; plant injury at 500 g/ha (soybean (Glycine max); [16]): 100%; pest or weed control at 62 g/ha [4, 17]: 95%; pest or weed control at 125 g/ha [4, 17]: 100%; pest or weed control at 250 g/ha [4, 18]: 100%; pest or weed control at 500 g/ha [4, 18]: 100%; pest or weed control at 62 g/ha [4, 19]: 95%; pest or weed control at 125 g/ha [4, 20]: 95%; pest or weed control at 250 g/ha [4, 20]: 100%; pest or weed control at 500 g/ha [4, 20]: 100%

Q: Which results are given for COC(=O)c1nc(C2CC2)nc(N)c1I [Compound 7]?
A: pest or weed control at 62 g/ha [1]: 0%; pest or weed control at 125 g/ha [1]: 0%; pest or weed control at 250 g/ha [1]: 0%; pest or weed control at 500 g/ha [1]: 0%; pest or weed control at 62 g/ha [2, 5]: 0%; pest or weed control at 125 g/ha [2, 5]: 0%; pest or weed control at 250 g/ha [2, 6]: 0%; pest or weed control at 500 g/ha [2, 6]: 0%; pest or weed control at 62 g/ha [3, 9]: 0%; pest or weed control at 125 g/ha [3, 10]: 0%; pest or weed control at 250 g/ha [3, 10]: 0%; pest or weed control at 500 g/ha [3, 10]: 0%; plant injury at 62 g/ha (soybean (Glycine max); [13]): 25%; plant injury at 125 g/ha (soybean (Glycine max); [13]): 25%; plant injury at 250 g/ha (soybean (Glycine max); [14]): 35%; plant injury at 500 g/ha (soybean (Glycine max); [14]): 60%; pest or weed control at 62 g/ha [4, 17]: 50%; pest or weed control at 125 g/ha [4, 17]: 60%; pest or weed control at 250 g/ha [4, 18]: 70%; pest or weed control at 500 g/ha [4, 18]: 80%

Q: How did the pest or weed control at 62 g/ha [1] turn out when Nc1nc(C2CC2)nc(C(=O)O)c1Br [Compound 8] was run?
A: 20%

Q: What about the pest or weed control at 125 g/ha [1] of the same molecule?
A: 75%

Q: What about the pest or weed control at 250 g/ha [1] of the same molecule?
A: 95%

Q: What about the pest or weed control at 500 g/ha [1] of the same molecule?
A: 100%

Q: What about the pest or weed control at 62 g/ha [2, 5] of the same molecule?
A: 30%

Q: And the pest or weed control at 125 g/ha [2, 5]?
A: 35%

Q: What about the pest or weed control at 250 g/ha [2, 6] of the same molecule?
A: 45%

Q: What about the pest or weed control at 500 g/ha [2, 6] of the same molecule?
A: 85%

Q: And the pest or weed control at 62 g/ha [2, 7]?
A: 0%

Q: And the pest or weed control at 125 g/ha [2, 8]?
A: 0%

Q: What about the pest or weed control at 250 g/ha [2, 8] of the same molecule?
A: 0%

Q: And the pest or weed control at 500 g/ha [2, 8]?
A: 20%

Q: What about the pest or weed control at 62 g/ha [3, 9] of the same molecule?
A: 50%

Q: And the pest or weed control at 125 g/ha [3, 10]?
A: 60%

Q: And the pest or weed control at 250 g/ha [3, 10]?
A: 65%

Q: What about the pest or weed control at 500 g/ha [3, 10] of the same molecule?
A: 75%

Q: And the pest or weed control at 62 g/ha [3, 11]?
A: 100%

Q: And the pest or weed control at 125 g/ha [3, 12]?
A: 100%

Q: And the pest or weed control at 250 g/ha [3, 12]?
A: 100%

Q: And the pest or weed control at 500 g/ha [3, 12]?
A: 100%

Q: And the plant injury at 62 g/ha (soybean (Glycine max); [13])?
A: 95%

Q: What about the plant injury at 125 g/ha (soybean (Glycine max); [13]) of the same molecule?
A: 95%

Q: And the plant injury at 250 g/ha (soybean (Glycine max); [14])?
A: 100%

Q: And the plant injury at 500 g/ha (soybean (Glycine max); [14])?
A: 100%

Q: And the plant injury at 62 g/ha (soybean (Glycine max); [15])?
A: 100%

Q: And the plant injury at 125 g/ha (soybean (Glycine max); [16])?
A: 100%

Q: And the plant injury at 250 g/ha (soybean (Glycine max); [16])?
A: 100%

Q: What about the plant injury at 500 g/ha (soybean (Glycine max); [16]) of the same molecule?
A: 100%

Q: And the pest or weed control at 62 g/ha [4, 17]?
A: 75%

Q: What about the pest or weed control at 125 g/ha [4, 17] of the same molecule?
A: 100%

Q: And the pest or weed control at 250 g/ha [4, 18]?
A: 100%

Q: What about the pest or weed control at 500 g/ha [4, 18] of the same molecule?
A: 100%

Q: And the pest or weed control at 62 g/ha [4, 19]?
A: 0%

Q: What about the pest or weed control at 125 g/ha [4, 20] of the same molecule?
A: 20%

Q: And the pest or weed control at 250 g/ha [4, 20]?
A: 90%

Q: And the pest or weed control at 500 g/ha [4, 20]?
A: 100%
